The results in this text go back to ChEMBL document CHEMBL4706768, “Discovery of Potent, Selective Triazolothiadiazole-Containing c-Met Inhibitors” (ACS Med Chem Lett, 2021).

Series [1] in a line: Inhibition of PI3K (unknown origin). Further details: species or system Homo sapiens.
For series [2], the target named is Angiopoietin-1 receptor (Homo sapiens) (UniProt Q02763). In words: Inhibition of recombinant human N-terminal His6-tagged TIE2 (771 to end residues) expressed in baculovirus infected Sf21 insect cells at 2 uM using poly (Glu4-Tyr) (4:1) as substrate relative to control.
Chain of Angiopoietin-1 receptor (Homo sapiens) (Q02763 whole entry): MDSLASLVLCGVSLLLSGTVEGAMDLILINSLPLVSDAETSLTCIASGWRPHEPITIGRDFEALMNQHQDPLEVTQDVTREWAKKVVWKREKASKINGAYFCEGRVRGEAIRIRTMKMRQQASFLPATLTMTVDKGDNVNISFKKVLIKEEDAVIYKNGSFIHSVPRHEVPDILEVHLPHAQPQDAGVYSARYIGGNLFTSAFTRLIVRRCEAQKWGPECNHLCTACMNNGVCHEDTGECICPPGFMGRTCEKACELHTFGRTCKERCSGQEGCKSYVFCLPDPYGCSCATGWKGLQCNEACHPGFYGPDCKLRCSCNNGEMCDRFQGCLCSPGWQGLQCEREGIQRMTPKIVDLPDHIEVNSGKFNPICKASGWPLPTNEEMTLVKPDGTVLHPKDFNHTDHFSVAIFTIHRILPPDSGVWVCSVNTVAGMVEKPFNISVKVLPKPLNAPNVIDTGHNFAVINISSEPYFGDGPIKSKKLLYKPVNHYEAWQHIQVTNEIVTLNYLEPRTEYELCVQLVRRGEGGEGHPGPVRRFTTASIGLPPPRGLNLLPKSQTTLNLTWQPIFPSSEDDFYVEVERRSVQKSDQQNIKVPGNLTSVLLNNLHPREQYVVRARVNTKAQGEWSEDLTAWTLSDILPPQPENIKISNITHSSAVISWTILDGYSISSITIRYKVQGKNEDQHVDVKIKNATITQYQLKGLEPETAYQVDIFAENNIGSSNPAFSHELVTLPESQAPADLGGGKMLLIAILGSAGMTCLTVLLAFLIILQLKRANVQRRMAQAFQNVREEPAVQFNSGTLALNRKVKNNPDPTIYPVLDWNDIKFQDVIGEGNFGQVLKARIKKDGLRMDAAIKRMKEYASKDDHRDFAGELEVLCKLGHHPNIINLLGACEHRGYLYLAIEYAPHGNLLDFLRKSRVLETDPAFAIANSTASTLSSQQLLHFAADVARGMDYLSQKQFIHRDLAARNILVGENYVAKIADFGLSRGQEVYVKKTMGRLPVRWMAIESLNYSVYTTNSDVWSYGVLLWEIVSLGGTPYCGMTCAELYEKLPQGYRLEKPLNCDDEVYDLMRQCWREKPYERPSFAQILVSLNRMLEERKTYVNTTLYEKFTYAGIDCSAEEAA
The target of series [3] is T1, Hepatocyte growth factor receptor (Homo sapiens, UniProt P08581). In words: Inhibition of c-MET in human SNU-5 cells measured after 6 hrs by steady-glo luciferase reporter gene assay. The series is classed as cell-based. In general terms: Reporter assays use an easily measured gene product as a stand-in for the process of interest.
T1 sequence (P08581 whole entry): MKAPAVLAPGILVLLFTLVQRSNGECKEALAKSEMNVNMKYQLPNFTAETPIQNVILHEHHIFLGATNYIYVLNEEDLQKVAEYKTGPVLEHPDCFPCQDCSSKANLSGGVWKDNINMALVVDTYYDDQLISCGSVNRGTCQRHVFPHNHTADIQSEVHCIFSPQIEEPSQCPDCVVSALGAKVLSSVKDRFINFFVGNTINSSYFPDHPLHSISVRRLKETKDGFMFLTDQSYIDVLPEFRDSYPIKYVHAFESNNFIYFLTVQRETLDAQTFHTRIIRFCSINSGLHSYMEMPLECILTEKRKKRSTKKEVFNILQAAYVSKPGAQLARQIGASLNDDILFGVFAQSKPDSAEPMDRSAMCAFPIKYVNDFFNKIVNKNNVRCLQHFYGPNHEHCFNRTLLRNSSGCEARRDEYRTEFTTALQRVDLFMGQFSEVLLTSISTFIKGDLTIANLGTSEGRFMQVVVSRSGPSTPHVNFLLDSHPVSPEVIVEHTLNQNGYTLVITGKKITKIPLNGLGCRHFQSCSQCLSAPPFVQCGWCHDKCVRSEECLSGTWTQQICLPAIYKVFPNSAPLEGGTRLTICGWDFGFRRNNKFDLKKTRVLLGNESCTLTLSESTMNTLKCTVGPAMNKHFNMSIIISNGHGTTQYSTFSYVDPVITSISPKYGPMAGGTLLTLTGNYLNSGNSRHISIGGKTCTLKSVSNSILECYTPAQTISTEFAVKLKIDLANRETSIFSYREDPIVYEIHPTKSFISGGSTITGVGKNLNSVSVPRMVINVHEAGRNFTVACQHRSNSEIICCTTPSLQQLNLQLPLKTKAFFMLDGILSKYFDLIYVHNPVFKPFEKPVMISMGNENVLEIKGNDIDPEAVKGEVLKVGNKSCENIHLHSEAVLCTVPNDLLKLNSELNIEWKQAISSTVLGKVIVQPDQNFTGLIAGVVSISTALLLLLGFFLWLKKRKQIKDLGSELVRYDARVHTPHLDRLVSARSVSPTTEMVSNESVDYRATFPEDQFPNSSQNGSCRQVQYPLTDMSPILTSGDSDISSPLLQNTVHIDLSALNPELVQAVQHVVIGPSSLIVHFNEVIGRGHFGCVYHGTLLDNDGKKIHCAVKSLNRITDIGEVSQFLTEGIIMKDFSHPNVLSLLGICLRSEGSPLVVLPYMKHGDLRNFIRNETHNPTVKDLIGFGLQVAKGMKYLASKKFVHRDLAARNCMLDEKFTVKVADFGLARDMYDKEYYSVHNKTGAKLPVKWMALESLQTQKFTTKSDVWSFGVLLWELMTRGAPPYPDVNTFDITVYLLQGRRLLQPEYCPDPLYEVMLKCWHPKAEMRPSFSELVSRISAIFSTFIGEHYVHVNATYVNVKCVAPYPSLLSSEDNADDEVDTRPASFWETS
Series [4] can be described thus: Unbound intrinsic clearance in human hepatocytes assessed per million cells. The series is classed as ADME, cell-based, Hepatocyte.
Series [5] concerns the target T1, Hepatocyte growth factor receptor. In words: Inhibition of c-Met (unknown origin) using poly Glu-Tyr as substrate preincubated for 10 mins followed by ATP addition by phosphoenolpyruvate/pyruvate kinase/lactate dehydrogenase coupled radiometric assay.

pIC50, pKi: −log10 of the molar value. Bounds are passed on as bounds.

In general, pKi refers to the negative decadic logarithm of the Ki, by convention in mol/L. A lower pKi goes with a high Ki. As a reminder, the inhibition is the change of the read-out against control, counted positive when it falls. Broadly, the pIC50 is the IC50 on a negative log10 scale, so that one unit is a factor of ten. Read a low pIC50 as a high IC50.

Take `C[C@@H](c1ccc2ncccc2c1)c1nnc2sc(-c3cnn(C)c3)nn12`: the pKi was < 5.40 in series [1] and 7.70 in series [5]. Besides, in series [2], the inhibition was < 50%. Also, the pIC50 in series [3] is 7.70. Also, the CL free in series [4] came to 5.1 µL/min.
